Here are results for 7 compounds from patent publication US20110112133A1, “DIHYDRO PYRROLOQUINOLINE DERIVATIVES” (Takeda Pharmaceutical Company Limited, priority 2009, published 2011).

In the experiment the target is T1, hNK3 receptor (Homo sapiens, UniProt P29371).
T1 construct: expressed in transfected cells; host or cells: CHO cells
T1 sequence (P29371 1-465): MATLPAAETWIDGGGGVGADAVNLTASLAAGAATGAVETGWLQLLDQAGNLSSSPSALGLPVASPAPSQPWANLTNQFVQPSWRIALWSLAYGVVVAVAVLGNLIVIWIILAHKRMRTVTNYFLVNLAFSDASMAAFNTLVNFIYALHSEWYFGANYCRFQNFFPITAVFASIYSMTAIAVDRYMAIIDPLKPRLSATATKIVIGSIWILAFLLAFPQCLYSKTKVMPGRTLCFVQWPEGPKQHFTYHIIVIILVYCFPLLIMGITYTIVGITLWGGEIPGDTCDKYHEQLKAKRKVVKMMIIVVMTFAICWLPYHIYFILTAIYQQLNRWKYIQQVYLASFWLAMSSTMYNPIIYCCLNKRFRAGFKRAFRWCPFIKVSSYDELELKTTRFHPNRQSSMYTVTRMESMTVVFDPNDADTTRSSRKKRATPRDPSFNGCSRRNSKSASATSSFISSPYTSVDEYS
The experiment in a line: Radioligand receptor binding inhibitory activity using membrane fraction of hNK3 receptor-expressing CHO cell ([125I]-NKB). As to conditions: for inhibition at 10 µM / inhibition at 1 µM: read-out: hNK3 receptor binding inhibitory activity (inhibitory rate (%)). How it is done: Radioligand Receptor Binding Inhibitory Activity Using Membrane Fraction of hNK3 Receptor-Expressing CHO Cell
hNK3 receptor-expressing CHO cells were cultured in a HAM-F12 medium containing 500 μg/mL Geneticin, 100 U/mL penicillin, 100 μg/mL streptomycin and 10% inactivated serum. The medium was removed before reaching confluence, and the cells were washed with PBS. PBS containing 0.5 mM EDTA was added to detach the cells from the flask and a cell suspension was recovered. The cells were recovered by low speed centrifugation. The cells were suspended in suspending buffer A (50 mM Tris-HCl (pH 7.4), 120 mM NaCl, 5 mM KCl, bacitracin (40 μg/mL), chymostatin (2 μg/mL), PMSF (0.5 mM), 1 mM EDTA), disrupted by a POLYTRON homogenizer (manufactured by KINEMATICA) and centrifuged at 2000×g for 10 min at 4° C. The supernatant was recovered, and ultracentrifuged at 40000×g for 60 min at 4° C. The precipitated fraction was suspended in suspending buffer B (50 mM Tris-HCl (pH 7.4), 3 mM MnCl2, 0.02% BSA, bacitracin (40 μg/mL), chymostatin (2 μg/mL), PMSF (0.5 mM)). The protein concentration of the suspension was measured using Bio-Rad Protein Assay kit and bovine serum albumin (protein preparation), and cryopreserved (at −80° C.) as a membrane fraction preparation of hNK3 receptor-expressing CHO cell until use for a binding assay.
The radioligand receptor binding assay was performed in a 96 well microassay plate format with a final volume of 200 μL. To the 96 well microassay plate were added 50 μL of assay buffer (50 mM Tris-HCl (pH 7.4), 0.02% bovine serum albumin, 2 μg/mL chymostatin, 40 μg/mL bacitracin, 40 μg/mL APMSF, 3 mM MnCl2), the aforementioned cryopreserved membrane fraction preparation suspended in assay buffer (50 μL (300 μg/mL)) and a test compound diluted with 50 μL of assay buffer (containing 2% dimethyl sulfoxide). The reaction was started by the addition of 50 μL of 400 pM [^125I]-NKB NKB (PerkinElmer Life Sciences) solution. For the measurement of the total binding, assay buffer (50 μL) containing 2% dimethyl sulfoxide was added instead of a diluted test compound solution, and for the measurement of non-specific binding, 50 μL of 4 μM unlabeled NKB (manufactured by Peptide Institute, Inc.) solution (diluted with assay buffer containing 2% dimethyl sulfoxide) was added.
After reaction at room temperature for 30 min, using a cell harvester (manufactured by PerkinElmer), the reaction was stopped by rapid filtration on a unifilter plate (GF/C) (manufactured by PerkinElmer), which had been immersed in 0.3% polyethyleneimine for one day, and the membrane fraction was washed 10 times with 50 mM Tris-HCl (pH 7.4) buffer containing 0.02% bovine serum albumin (250 μL). The GF/C filter plate was dried and 20 μL of MicroScinti-O (manufactured by PerkinElmer) was added to each well and the radioactivity was measured by TopCount (manufactured by PerkinElmer).
Specific binding is shown by the value obtained by subtracting non-specific binding from the total binding. The binding inhibitory activity of the test compound is shown by the ratio of the value obtained by subtracting the measured value associated with the addition of the test compound from the total binding, to the value of the specific binding.

Each structure is given as a SMILES string.

As to `Cc1ccn(-c2ccc(C(=O)N[C@@H]3CCC(F)(F)C[C@@H]3C(=O)N3CCc4c(-c5ncc[nH]5)nc5ccccc5c43)cc2)n1.Cl` [Example 3, N-[(1R,2S)-4,4-difluoro-2-{(4-(1H-imidazol-2-yl)-2,3-dihydro-1H-pyrrolo[3,2-c]quinolin-1-yl]carbonyl}cyclohexyl]-4-(3-methyl-1H-pyrazol-1-yl)benzamide hydrochloride], the “hNK3 receptor binding inhibitory activity (inhibitory rate (%))” value is, setting by setting: (test compound 10^−5 M) 30.4%; (test compound 10^−6 M) 9.4%.

Turning to `Cc1ccn(-c2ccc(C(=O)N[C@@H]3CCC(F)(F)C[C@@H]3C(=O)N3CCc4c(-c5ncc[nH]5)nc5ccccc5c43)cc2)n1` [Example 1, N-[(1R,2S)-4,4-difluoro-2-{[4-(1H-imidazol-2-yl)-2,3-dihydro-1H-pyrrolo[3,2-c]quinolin-1-yl]carbonyl}cyclohexyl]-4-(3-methyl-1H-pyrazol-1-yl)benzamide], the inhibition at 10 µM (test compound 10^−5 M) was determined as 28.4%. Moreover, where the note is “test compound 10^−6 M”, the “hNK3 receptor binding inhibitory activity (inhibitory rate (%))” value was 9.0%.

On to `Cc1ccn(-c2ccc(C(=O)N[C@@H]3CCC(F)(F)C[C@@H]3C(=O)N3CCc4c(-c5ncc[nH]5)nc5ccc(F)cc5c43)cc2)n1` [Example 5, N-[(1R,2S)-4,4-difluoro-2-{[8-fluoro-4-(1H-imidazol-2-yl)-2,3-dihydro-1H-pyrrolo[3,2-c]quinolin-1-yl]carbonyl}cyclohexyl]-4-(3-methyl-1H-pyrazol-1-yl)benzamide], for which the inhibition at 10 µM (test compound 10^−5 M) was 15.2%. Besides, where the note is “test compound 10^−6 M”, the inhibition at 1 µM is -8.1%.

`Cc1ccn(-c2ccc(C(=O)N[C@@H]3CCC(F)(F)C[C@@H]3C(=O)N3CCc4c(-c5ccccc5)nc5ccc(F)cc5c43)cc2)n1` [Example 9, N-{(1R,2S)-4,4-difluoro-2-[(8-fluoro-4-phenyl-2,3-dihydro-1H-pyrrolo[3,2-c]quinolin-1-yl)carbonyl]cyclohexyl}-4-(3-methyl-1H-pyrazol-1-yl)benzamide]: the inhibition at 10 µM (test compound 10^−5 M) stood at 53.1%. The inhibition at 1 µM (test compound 10^−6 M) was found to be 27.7%.

For `Cc1ccn(-c2ccc(C(=O)N[C@@H]3CCC(F)(F)C[C@@H]3C(=O)N3CCc4c(-c5nccn5COC(=O)C(C)(C)C)nc5ccccc5c43)cc2)n1` [Example 4, [2-(1-{[(1S,2R)-5,5-difluoro-2-({[4-(3-methyl-1H-pyrazol-1-yl)phenyl]carbonyl}amino)cyclohexyl]carbonyl)-2,3-dihydro-1H-pyrrolo[3,2-c]quinolin-4-yl)-1H-imidazol-1-yl]methyl 2,2-dimethylpropanoate], the inhibition at 10 µM (test compound 10^−5 M) was -7.9%. The inhibition at 1 µM (test compound 10^−6 M) was -6.1%.

For the compound `Br.Cc1ccn(-c2ccc(C(=O)N[C@@H]3CCC(F)(F)C[C@@H]3C(=O)N3CCc4c(-c5ncc[nH]5)nc5ccccc5c43)cc2)n1` [Example 2, N-[(1R,2S)-4,4-difluoro-2-{[4-(1H-imidazol-2-yl)-2,3-dihydro-1H-pyrrolo[3,2-c]quinolin-1-yl]carbonyl}cyclohexyl]-4-(3-methyl-1H-pyrazol-1-yl)benzamide hydrobromide], the “hNK3 receptor binding inhibitory activity (inhibitory rate (%))” value came out at 32.7% (test compound 10^−5 M) and 4.1% (test compound 10^−6 M).

As to `Cc1ccn(-c2ccc(C(=O)N[C@@H]3CCC(F)(F)C[C@@H]3C(=O)N3CCc4c(-c5ccsc5)nc5ccccc5c43)cc2)n1` [Example 7, N-[(1R,2S)-4,4-difluoro-2-{(4-thiophen-3-yl-2,3-dihydro-1H-pyrrolo[3,2-c]quinolin-1-yl)carbonyl]cyclohexyl}-4-(3-methyl-1H-pyrazol-1-yl)benzamide], for the setting “test compound 10^−5 M”, the inhibition at 10 µM amounted to 35.6%. Where the note is “test compound 10^−6 M”, the inhibition at 1 µM was determined as 5.9%.
